From ChEMBL document CHEMBL1137672, “Synthesis and pharmacological evaluation of 2-substituted benzo[b]thiophenes as anti-inflammatory and analgesic agents” (Eur J Med Chem, 2009)

Experiments:
[1] = system: Rattus norvegicus; test: Antiinflammatory against carrageenan-induced paw edema in Sprague-Dawley rat assessed as remaining paw edema at 25 mg/kg, sc administered 30 mins before carrageenan challenge measured after 1 hr by plethysmometer relative to control; format: functional; conditions: route subcutaneous
[2] = system: Rattus norvegicus; test: Antiinflammatory against carrageenan-induced paw edema in Sprague-Dawley rat assessed as remaining paw edema at 25 mg/kg, sc administered 30 mins before carrageenan challenge measured after 2 hrs by plethysmometer relative to control; format: functional; conditions: route subcutaneous
[3] = system: Rattus norvegicus; test: Antiinflammatory against carrageenan-induced paw edema in Sprague-Dawley rat assessed as remaining paw edema at 25 mg/kg, sc administered 30 mins before carrageenan challenge measured after 3 hrs by plethysmometer relative to control; format: functional; conditions: route subcutaneous
[4] = system: Rattus norvegicus; test: Antiinflammatory against carrageenan-induced paw edema in Sprague-Dawley rat assessed as remaining paw edema at 25 mg/kg, sc administered 30 mins before carrageenan challenge measured after 4 hrs by plethysmometer relative to control; format: functional; conditions: route subcutaneous
[5] = system: Rattus norvegicus; test: Antiinflammatory against carrageenan-induced paw edema in Sprague-Dawley rat assessed as remaining paw edema at 50 mg/kg, sc administered 30 mins before carrageenan challenge measured after 1 hr by plethysmometer relative to control; format: functional; conditions: route subcutaneous
[6] = system: Rattus norvegicus; test: Antiinflammatory against carrageenan-induced paw edema in Sprague-Dawley rat assessed as remaining paw edema at 50 mg/kg, sc administered 30 mins before carrageenan challenge measured after 2 hrs by plethysmometer relative to control; format: functional; conditions: route subcutaneous
[7] = system: Rattus norvegicus; test: Antiinflammatory against carrageenan-induced paw edema in Sprague-Dawley rat assessed as remaining paw edema at 50 mg/kg, sc administered 30 mins before carrageenan challenge measured after 3 hrs by plethysmometer relative to control; format: functional; conditions: route subcutaneous
[8] = system: Rattus norvegicus; test: Antiinflammatory against carrageenan-induced paw edema in Sprague-Dawley rat assessed as remaining paw edema at 50 mg/kg, sc administered 30 mins before carrageenan challenge measured after 4 hrs by plethysmometer relative to control; format: functional; conditions: route subcutaneous
[9] = system: Rattus norvegicus; test: Analgesic activity in Sprague-Dawley rat assessed as change in latency time required to elicit jumping or hind paw licking at 25 mg/kg, sc administered 1 hr prior testing measured after 1 hr of post dose by hot plate method relative to basal level; format: functional; conditions: route subcutaneous
[10] = system: Rattus norvegicus; test: Analgesic activity in Sprague-Dawley rat assessed as change in latency time required to elicit jumping or hind paw licking at 25 mg/kg, sc administered 1 hr prior testing measured after 2 hrs of post dose by hot plate method relative to basal level; format: functional; conditions: route subcutaneous
[11] = system: Mus musculus; test: Analgesic activity in Swiss albino mouse assessed as inhibition of acetic acid-induced abdominal constriction at 25 mg/kg, sc administered 30 mins prior to acetic acid challenge measured for 30 mins relative to control; format: functional; conditions: Abdomen, route subcutaneous
[12] = system: Rattus norvegicus; test: Gastrointestinal toxicity in Sprague-Dawley rat assessed as gastric mucosal lesion at 50 mg/kg, po daily for 1 week; format: organism-based, Gastric mucosa; set-up: dose 50 mg/kg, route oral; conditions: in vivo, 168 h
[13] = system: Rattus norvegicus; test: Hepatotoxicity in Sprague-Dawley rat assessed as serum alanine aminotransferase level at 50 mg/kg, po daily for 1 week by Reitman-Frankel colorimetric procedure; format: toxicity, organism-based; set-up: dose 50 mg/kg, route oral; conditions: in vivo, 168 h
[14] = system: Rattus norvegicus; test: Hepatotoxicity in Sprague-Dawley rat assessed as serum aspartate aminotransferase level at 50 mg/kg, po daily for 1 week by Reitman-Frankel colorimetric procedure; format: toxicity, organism-based; set-up: dose 50 mg/kg, route oral; conditions: in vivo, 168 h
[15] = system: Rattus norvegicus; test: Analgesic activity in Sprague-Dawley rat assessed as latency time required to elicit jumping or hind paw licking at 25 mg/kg, sc administered 1 hr prior testing measured after 2 hrs of post dose by hot plate method; format: functional; conditions: route subcutaneous
[16] = system: Rattus norvegicus; test: Antiinflammatory against carrageenan-induced paw edema in Sprague-Dawley rat assessed as remaining paw edema at 10 mg/kg, sc administered 30 mins before carrageenan challenge measured after 2 hrs by plethysmometer relative to control; format: functional; conditions: route subcutaneous
[17] = system: Rattus norvegicus; test: Antiinflammatory against carrageenan-induced paw edema in Sprague-Dawley rat assessed as remaining paw edema at 10 mg/kg, sc administered 30 mins before carrageenan challenge measured after 3 hrs by plethysmometer relative to control; format: functional; conditions: route subcutaneous
[18] = system: Rattus norvegicus; test: Antiinflammatory against carrageenan-induced paw edema in Sprague-Dawley rat assessed as remaining paw edema at 10 mg/kg, sc administered 30 mins before carrageenan challenge measured after 1 hr by plethysmometer relative to control; format: functional; conditions: route subcutaneous
[19] = system: Rattus norvegicus; test: Antiinflammatory against carrageenan-induced paw edema in Sprague-Dawley rat assessed as remaining paw edema at 10 mg/kg, sc administered 30 mins before carrageenan challenge measured after 4 hrs by plethysmometer relative to control; format: functional; conditions: route subcutaneous
[20] = system: Rattus norvegicus; test: Analgesic activity in Sprague-Dawley rat assessed as change in latency time required to elicit jumping or hind paw licking at 10 mg/kg, sc administered 1 hr prior testing measured after 1 hr of post dose by hot plate method relative to basal level; format: functional; conditions: route subcutaneous
[21] = system: Rattus norvegicus; test: Analgesic activity in Sprague-Dawley rat assessed as change in latency time required to elicit jumping or hind paw licking at 10 mg/kg, sc administered 1 hr prior testing measured after 2 hrs of post dose by hot plate method relative to basal level; format: functional; conditions: route subcutaneous
[22] = system: Mus musculus; test: Analgesic activity in Swiss albino mouse assessed as inhibition of acetic acid-induced abdominal constriction at 10 mg/kg, sc administered 30 mins prior to acetic acid challenge measured for 30 mins relative to control; format: functional; conditions: Abdomen, route subcutaneous

SMILES	Activity [1]	Activity [2]	Activity [3]	Activity [4]	Activity [5]	Activity [6]	Activity [7]	Activity [8]	Activity [9]	Activity [10]	inhibition in vivo at 25 mg/kg [11]	Activity [12]	Activity [13]	Activity [14]	Activity [15]	further results
NNC(=O)Nc1cc2cc([N+](=O)[O-])ccc2s1	59.7%	71.2%	79%	80%	45.9%	45.9%	54.3%	56.4%	19.4%	7.5%	-43.4%	Non-toxic	Non-toxic	Non-toxic		
O=C(NNC(=S)Nc1ccccc1)c1cc2cc([N+](=O)[O-])ccc2s1	40%	48.1%	54.6%	58.7%	35.7%	42.7%	45.3%	46.2%	36.5%		-63.4%	Non-toxic	Non-toxic	Non-toxic	16.66 s	
CN1C(C(=O)Nc2ccccn2)=C(O)c2ccccc2S1(=O)=O [PIROXICAM]																Activity [16]: 42.9%; Activity [17]: 51.4%; Activity [18]: 35.9%; Activity [19]: 51.4%; Activity [20]: 21.4%; Activity [21]: 8.3%; inhibition in vivo at 10 mg/kg [22]: -56.9%
O=C(N/N=C/c1c[nH]c2ccccc12)c1cc2cc([N+](=O)[O-])ccc2s1	63.2%	89.1%	90.1%	90%	36.9%	46.5%	46.6%	49.6%	16.6%		16.9%	Non-toxic	Non-toxic	Non-toxic	14.72 s	
NNC(=O)c1cc2cc([N+](=O)[O-])ccc2s1	49.4%	51.9%	55.9%	55.9%	38.2%	42.2%	46.3%	51.3%	24.7%	31.6%	-88.2%	Non-toxic	Non-toxic	Non-toxic		
Cc1ccc(/C=N/NC(=O)c2cc3cc([N+](=O)[O-])ccc3s2)o1	55.9%	77.2%	92.2%	92%	37.5%	41.6%	41.3%	40.7%	19.8%	22.39%	-43.1%	Non-toxic	Non-toxic	Non-toxic		
